The record followed here is paper PMC11878239, “Biochemical investigations using mass spectrometry to monitor JMJD6-catalysed hydroxylation of multi-lysine containing bromodomain-derived substrates” (RSC Chemical Biology, 2025).

This assay addresses T1, full-length His6-JMJD6 (Homo sapiens, UniProt Q6NYC1).
T1 construct: An enzyme mixture (10 μL) containing full-length His6-JMJD6 (5 μM; final concentration: 0.05 μM); made in house; host or cells: Escherichia coli BL21 (DE3), pET-28a(+) plasmid
The assay can be described thus: LC-MS of JMJD6-catalysed hydroxylation under 18O2 or in 18OH2. The conditions noted are these: 2OG 2 mM, FAS 20 μM, LAA 1 mM, peptide 50 μM, Tris pH 7.5, 24 h, room temperature. It is filed as biochemical. On the procedure:
[…] The assay solutions were transferred to a custom-made air-tight container, which was then sealed and removed from the anaerobic chamber. […] The container was evacuated and then filled with […] to a pressure of ∼700 mbar. […] The enzyme reactions were incubated for 24 h at room temperature, after which time the container was returned to the anaerobic chamber. The reactions were stopped by the addition of 10%v/v aqueous formic acid (20 μL) and analysed by LC–MS using an Agilent 1290 infinity II LC system comprising a 1290 infinity II multi-sampler and a 1290 infinity II high speed pump connected to an Agilent 6550 accurate mass iFunnel quadrupole time-of-flight (QTOF) mass spectrometer. Samples (6 μL) were injected onto a 2.1 × 50 mm, 1.8 μm ZORBAX RRHD Eclipse Plus C18 column equipped with a UHPLC guard column (Agilent; flow rate: 0.2 mL min^−1). […] Acquired data were analysed using Agilent MassHunter Qualitative Analysis (version B.07.00).
Tris buffer, cofactor and BRD4_511–550 stock solutions were prepared using ^18OH2 (CK Isotopes) and JMJD6 was buffer exchanged into 50 mM Tris (pH 7.5) in ^18OH2. The enzyme reactions were incubated under an ambient atmosphere at room temperature for 24 h, after which the reactions were stopped by the addition of 10%v/v aqueous formic acid (20 μL) and analysed by LC–MS as described above.

Entries after “also recorded” stand apart in the source; their conditions may differ.

With “LAELQEQLKAVHEQLAALSQPQQNKPKKKEKDKKEKKKEK [BRD4_511–550, 40-mer peptide fragment derived from human BRD4, JMJD6 substrate, prepared by SPPS]”, the “incorporated oxygen in 18OH2” value (16O2 atmosphere in 18OH2, JMJD6 2 μM) is given as “complete incorporation of ^16O from atmospheric O2”. Also, under “18O2 atmosphere in H2O, JMJD6 2 μM”, the “mass shifts / origin of incorporated oxygen under 18O2” value is “successive +18 Da shifts; also recorded: originates, at least, predominantly from ^18O2; also recorded: originate predominantly from atmospheric O2”.
